The source made the active and inactive calls. The rule behind the calls is not given here.
Tests used:
Staphylococcus aureus [1] = experiment: Antimicrobial activity against Staphylococcus aureus at 5 ug/disk; type: functional, organism-based
Escherichia coli [2] = experiment: Antimicrobial activity against Escherichia coli at 10 ug/disk; type: functional, organism-based
Escherichia coli [3] = experiment: Antimicrobial activity against Escherichia coli at 5 ug/disk; type: functional, organism-based
Staphylococcus aureus [4] = experiment: Antimicrobial activity against Staphylococcus aureus at 10 ug/disk; type: functional, organism-based
Escherichia coli [5] = experiment: Antimicrobial activity against Escherichia coli at 1 ug/disk; type: functional, organism-based
Staphylococcus aureus [6] = experiment: Antimicrobial activity against Staphylococcus aureus at 1 ug/disk; type: functional, organism-based
HCT-116 = experiment: Cytotoxicity against human HCT116 cells; type: functional, cell-based

Compound | Activity (Staphylococcus aureus [1]) | Activity (Escherichia coli [2]) | Activity (Escherichia coli [3]) | Activity (Staphylococcus aureus [4]) | Activity (Escherichia coli [5]) | Activity (Staphylococcus aureus [6]) | IC50 (HCT-116)
CC(=O)O[C@H]1[C@H](C)OC(=O)[C@H]1CCCCCCCCCCCCCCC1=C[C@H](C)OC1=O | inactive | inactive | inactive | inactive | inactive | inactive | 
CC(=O)O[C@@H]1[C@H](C)OC(=O)[C@@H]1CCCCCC/C=C\CCCCCCC1=C[C@H](C)OC1=O | inactive | inactive | inactive | inactive | inactive | inactive | 
C[C@@H]1OC(=O)[C@@H](CCCCCCCCCCCCC2=C[C@H](C)OC2=O)[C@H]1O | inactive | inactive | inactive | inactive | inactive | inactive | 
CC(=O)O[C@H]1[C@H](C)OC(=O)[C@H]1CCCCCCCCCCCCC1=C[C@H](C)OC1=O | inactive | inactive | inactive | inactive | inactive | inactive | 
C[C@H]1C=C(CCCCCC/C=C\CCCCCCC2=C[C@H](C)OC2=O)C(=O)O1 | inactive | inactive | inactive | inactive | inactive | inactive | > 50 µg/mL
CC(=O)O[C@@H]1[C@H](C)OC(=O)[C@@H]1CCCCCCCCCCCCCCC1=C[C@H](C)OC1=O | inactive | inactive | inactive | inactive | inactive | inactive | 
CC(=O)O[C@@H]1[C@H](C)OC(=O)[C@@H]1CCCCCCCCCCCCC1=C[C@H](C)OC1=O [ANCEPSENOLIDE ACETATE] | inactive | inactive | inactive | inactive | inactive | inactive | > 50 µg/mL
C[C@H]1C=C(CCCCCCCCCCCCCCC2=C[C@H](C)OC2=O)C(=O)O1 [HOMOANCEPSENOLIDE] | inactive | inactive | inactive | inactive | inactive | inactive | > 50 µg/mL

— ChEMBL document CHEMBL1149045, “Further butenolides from the Caribbean octocoral Pterogorgia citrina” (J Nat Prod, 1994)
